Source: article PMC9475137, “Sesquiterpene lactones from Artemisia vulgaris L. as potential NO inhibitors in LPS-induced RAW264.7 macrophage cells” (Frontiers in Chemistry, 2022)
“Also recorded” adds a separate entry of the source.

How the values were obtained:
Assay type in all cases: cell-based
[1] = Cytotoxicity against RAW264.7 cells (CCK8); settings: mouse, 24 h incubation, 3.125–200 μM
Experimental: For the cytotoxicity assay, RAW 264.7 cells were grown in DMEM containing 10% FBS and cultured at 37°C. Then, the cells were seeded in a 96-well plate (1 × 10^4 cells/well) before the cells were incubated for 24 h in various concentrations of compounds (3.125–200 μM). Cell viability was examined using a CCK8-kit. The CCK8 solution (5 µl) was added to each well and incubated for 1–2 h at 37°C. The OD value at 450 nm was quantified by Graphpad software, and the corresponding 50% cytotoxic concentration (CC50) of the compounds was subsequently obtained.

[2] = test system: NO production in LPS-induced RAW264.7 cells; assay: Inhibition of NO production in LPS-induced RAW264.7 macrophages (Griess reagent); settings: for IC50: Mus musculus, RAW264.7, pretreated 1 h with compounds (0.25–4 μM), LPS 1 μg/ml 18 h, Mean ± SD, read-out: IC50 (μM), NO inhibition toward LPS-induced RAW264.7 cells
Experimental: The level of accumulated nitrite in the culture media reflected the level of NO using the classic Griess reagent (Beyotime, Jiangsu, China). The RAW264.7 cells were seeded in a 96-well plate with a 6 ×10^4 cells/ml density for the indicated time. Then, the cells were pretreated for 1 h with test compounds (0.25–4 μM), followed by stimulation with LPS (1 μg/ml) for 18 h. Finally, 50 ul of the culture supernatant was mixed with an equal amount of the Griess reagent, and the optical densities at 570 nm were read using a microplate reader. The nitric oxide concentration of the samples was calculated according to the standard curve.

COX-2 = COX-2 expression in LPS-induced RAW264.7 cells (quantitative real-time PCR and Western blotting); settings: LPS-induced RAW264.7 macrophages; qPCR and Western blotting; compound 1 at 4 μM compared with dexamethasone
Experimental: (§1) RAW264.7 cells were seeded in a six-well plate (10 × 10^5 cells/well) for the indicated time. Cells were pretreated with compound 1 (0.5, 1, and 4 μM) for 1 h and then stimulated with LPS (1 ug/mL) for 18 h. Total cellular RNA was extracted with Trizol reagent (TIANGEN, Beijing, China). One microgram of RNA per sample was reverse-transcribed into cDNA using the PrimeScript RT Reagent Kit (TAKARA, Dalian, China). qPCR assays were performed by the CFX96 Touch Real-Time PCR Detection System (Bio-Rad). The following primers were used: iNOS (forward, 5′-AAACCCCAGGTGCTATTCCC-3′; reverse, 5′-TGGGTCCTCTGGTCAAACTC-3′), COX-2 (forward, 5′-ATTCCAAACCAGCAGACTCATA-3′; reverse, CTTGAGTTTGAAGTGGTAACCG-3′), and GAPDH (forward, 5′- GTCATTGAGAGCAATGCCAG-3′; reverse, 5′-GTGTTCCTACCCCCAATGTG-3′). […]
(§2) RAW264.7 cells with the indicated treatment were harvested and treated in a RIPA lysis buffer (Beyotime, Shanghai, China) containing a protease and phosphatase inhibitor cocktail (Beyotime, Shanghai, China) to obtain the lysates. Then, the total proteins were measured using the bicinchoninic acid (BCA) protein assay kit (Beyotime, Shanghai, China) and regulated by a loading buffer and the RIPA lysis buffer. […] Finally, the protein bands were detected using the ImageJ software (Bio-Rad, Hercules, CA, United States).

iNOS = iNOS expression in LPS-induced RAW264.7 cells (quantitative real-time PCR and Western blotting); settings: LPS-induced RAW264.7 macrophages; qPCR and Western blotting; compound 1 at 4 μM compared with dexamethasone
Experimental: as §1, §2

Compound: C=C1C(=O)O[C@H]2[C@H]1[C@@H](OC(=O)CC(C)C)CC(=C)[C@]1(O)CC=C(C)[C@H]21 [Compound 4, Artemvulactone K]
- CC50 at 24 h [1]: > 20 µM
- IC50 [2]: 3.6 ± 0.1 µM

Compound: C=C1C(=O)O[C@@H]2[C@H]3C(C)=CC(=O)C3=C(C)C[C@H](OC(C)=O)[C@@H]12 [Compound 22, Dehydromatricarin]
- CC50 at 24 h [1]: > 10 µM
- IC50 [2]: 1.8 ± 0.2 µM

Compound: C=C1C(=O)O[C@H]2[C@H]1[C@@H](OC(=O)/C(C)=C\C)CC(=C)[C@]1(O)C[C@H]3O[C@@]3(C)[C@H]21 [Compound 16, 8-angeloyloxy-1α-hydroxy-3α, 4α-epoxy-5α, 7αH-10(14), 11(13)-guaiadien-12,6α-olide]
- CC50 at 24 h [1]: > 10 µM
- IC50 [2]: 1.1 ± 0.2 µM

Compound: C=C1CC(OC(=O)C(C)=CC)C2C(C)C(=O)OC2C2C(C)=CCC12O (stereo not drawn) [Compound 5, Artemvulactone L]
- CC50 at 24 h [1]: > 100 µM
- IC50 [2]: > 10 µM

Compound: C=C1C(=O)O[C@H]2[C@H]1[C@@H](OC(=O)C=C(C)C)CC(=C)[C@]1(O)CC=C(C)[C@H]21 [Compound 14, 1α-hydroxy-8α-senecioyloxy-3(4),10(14),11(13)-trienguai-12,6α-olide]
- CC50 at 24 h [1]: > 15 µM
- IC50 [2]: 1.4 ± 0.2 µM

Compound: C=C1C(=O)O[C@@H]2[C@H]3C(C)=CC(=O)C3=C(C)CC[C@@H]12 [Compound 20, dehydroleucodine]
- CC50 at 24 h [1]: > 70 µM
- IC50 [2]: 1.8 ± 0.1 µM

Compound: C=C1C(=O)O[C@H]2[C@H]1[C@@H](OC(=O)/C(C)=C/C)CC(=C)[C@]1(O)CC=C(C)[C@H]21 [Compound 15, 8-epi-Tiglylrupicolin B]
- CC50 at 24 h [1]: > 10 µM
- IC50 [2]: 1.2 ± 0.1 µM

Compound: C=C1C(=O)O[C@H]2[C@H]1[C@@H](OC(=O)CC(C)C)CC(=C)[C@]1(O)C[C@H]3O[C@@]3(C)[C@H]21 [Compound 19, 3α,4α-epoxyrupicolin E]
- CC50 at 24 h [1]: > 25 µM
- IC50 [2]: 1 ± 0.2 µM

Compound: C=C1C(=O)O[C@H]2[C@H]1[C@@H](OC(=O)CC(C)C)C=C(C)[C@]1(O)CC=C(C)[C@H]21 [Compound 3, Artemvulactone J]
- CC50 at 24 h [1]: > 10 µM
- IC50 [2]: 2.8 ± 0.1 µM

Compound: C=C1C(=O)O[C@H]2[C@H]1[C@@H](OC(=O)C(C)C)C=C(C)[C@]1(O)C[C@H]3O[C@@]3(C)[C@H]21 [Compound 8, Artemvulactone O]
- CC50 at 24 h [1]: > 20 µM
- IC50 [2]: 3.2 ± 0.1 µM

Compound: C=C1C(=O)O[C@H]2[C@H]1[C@@H](OC(=O)C(C)C)CC(=C)[C@]1(O)C[C@H]3O[C@@]3(C)[C@H]21 [Compound 6, Artemvulactone M]
- CC50 at 24 h [1]: > 20 µM
- IC50 [2]: 3.1 ± 0.1 µM

Compound: C=C1C(=O)O[C@H]2[C@H]1[C@@H](OC(=O)C(C)C)CC(=C)[C@]1(O)CC=C(C)[C@H]21 [Compound 17, 8-epi-isobutyrylrupicolin B]
- CC50 at 24 h [1]: > 20 µM
- IC50 [2]: 1.5 ± 0.1 µM

Compound: C=C1C(=O)O[C@H]2[C@H]1[C@@H](OC(=O)CC)C=C(C)[C@]1(O)C[C@H]3O[C@@]3(C)[C@H]21 [Compound 11, Artemvulactone R]
- CC50 at 24 h [1]: > 15 µM
- IC50 [2]: 1.9 ± 0.4 µM

Compound: C=C1C(=O)O[C@H]2[C@H]1[C@@H](OC(=O)C(C)C)C=C(C)[C@]1(O)CC=C(C)[C@H]21 [Compound 18, 8-epi-isobutyrylrupicolin]
- CC50 at 24 h [1]: > 20 µM
- IC50 [2]: 1.1 ± 0.1 µM

Compound: C=C1C(=O)O[C@H]2[C@H]1[C@@H](OC(C)=O)CC(C)=C1C[C@H]3O[C@@]3(C)[C@@H]12 [Compound 21, (+)-Arteglasin A]
- CC50 at 24 h [1]: > 20 µM
- IC50 [2]: 1.2 ± 0.2 µM

Compound: C=C1C(=O)O[C@H]2[C@H]1[C@@H](OC(=O)/C(C)=C\C)CC(=C)[C@]1(O)CC=C(C)[C@H]21 [Compound 7, Artemvulactone N]
- CC50 at 24 h [1]: > 20 µM
- IC50 [2]: 2.1 ± 0.6 µM

Compound: C=C1C(=O)OC2C1CCC(C)(O)C1(O)C(Cl)C3OC3(C)C21 (stereo not drawn) [Compound 12, Artemvulactone S]
- CC50 at 24 h [1]: > 40 µM
- IC50 [2]: 2.7 ± 0.5 µM

Compound: C[C@@H]1C[C@H]2[C@@H]3CCC4=CC(=O)C=C[C@]4(C)[C@@]3(F)[C@@H](O)C[C@]2(C)[C@@]1(O)C(=O)CO [Dexamethasone, reference compound]
- IC50 [2]: 4.3 ± 0.3 µM

Compound: C=C1C(=O)O[C@H]2[C@H]1[C@@H](OC(=O)/C(C)=C\C)C=C(C)[C@]1(O)CC=C(C)[C@H]21 [Compound 1, Artemvulactone H]
- CC50 at 24 h [1]: > 10 µM
- expression of COX-2 (COX-2): reduced more expressions of iNOS and COX-2 than the positive drug; also recorded: suppressed
- expression of iNOS (iNOS): reduced more expressions of iNOS and COX-2 than the positive drug; also recorded: suppressed
- NO production inhibitory effect, in words (ranking / comparison with positive control dexamethasone) ([2]; LPS-stimulated RAW264.7 cells): most active
- IC50 [2]: 1.1 ± 0.1 µM

Compound: C=C1C(=O)OC2C1C(OC(=O)CC)CC(C)(OC)C1C(=O)C=C(C)C21 (stereo not drawn) [Compound 10, Artemvulactone Q]
- CC50 at 24 h [1]: > 10 µM
- IC50 [2]: 2.1 ± 0.1 µM

Compound: C=C1C(=O)O[C@@H]2[C@H]3C(C)=CC(=O)C3=C(C)C[C@H](OC(=O)CC)[C@@H]12 [Compound 9, Artemvulactone P]
- CC50 at 24 h [1]: > 20 µM
- IC50 [2]: 1.9 ± 0.8 µM

Compound: C=C1C(=O)O[C@H]2[C@H]1[C@@H](OC(=O)C(C)CC)CC(=C)[C@]1(O)CC=C(C)[C@H]21 (stereo partly drawn) [Compound 13, 1α-hydroxy-8α-methylbutyroxy-3(4),10(14),11(13)-trienguai-12,6α-olide]
- CC50 at 24 h [1]: > 15 µM
- IC50 [2]: 1.5 ± 0.1 µM

Compound: C=C1C(=O)O[C@H]2[C@H]1[C@@H](OC(=O)C(C)CC)C=C(C)[C@]1(O)CC=C(C)[C@H]21 (stereo partly drawn) [Compound 2, Artemvulactone I]
- CC50 at 24 h [1]: > 10 µM
- IC50 [2]: 1.2 ± 0.3 µM
